# According to PubChem BioAssay AID1963873 (Molecular Pharmacology Branch, DTP, NCI, 2024):
# “And” between values parts separate entries of the source, which are not always exact repeats. Equal values may be shown once.
# System: 276233-004-R-J1-PDC KRAS spheroids with HUVEC/MSC, viability
# Assay: Anticancer human tumor 276233-004-R-J1-PDC patient-derived colon adenocarcinoma cell line growth inhibition [KRAS2]
# Settings: for viability, T/C: stronger effect = lower value
# Description: Multicellular complex tumor spheroid response to RAS pathway inhibitors in combination with a targeted agents in patient-derived cell lines with oncogenic KRAS variants from multiple cancer types
# A high-throughput screen of multi-cell type tumor spheroids was designed to identify active combinations of targeted small molecules and KRAS pathway inhibitors. Complex spheroids include a stromal component modeled by human endothelial cells (HUVEC) and fibroblasts modeled by human mesenchymal stem cells (MSCs). The concentration ranges selected for each drug and investigational agent were based upon clinically achievable concentrations if the clinical Cmax of the agent was known.
# Compounds. The drugs and investigational agents: BI-3406 (NSC825286), BAY-293 (NSC824723), batoprotafib (TNO155; NSC825523), sotorasib (AMG 510; NSC818433), MRTX1257 (NSC819558), elimusertib (BAY 1895344; NSC800525), molibresib (GSK525762; NSC774829), temuterkib (LY3214996; NSC803410), venetoclax (NSC766270), alisertib (NSC759677), olaparib (NSC753686), talazoparib (NSC767125), erdafitinib (NSC781556), ipatasertib (NSC767898), cabozantinib (NSC761068), nintedanib (NSC756659), abemaciclib (NSC768073), docetaxel (NSC628503), trametinib (NSC758246), and sapanisertib (NSC764658) were obtained from the National Cancer Institute (NCI) Developmental Therapeutics Program Chemical Repository. The FDA-approved anticancer drug set is available from the Developmental Therapeutics Program. […] The stock solutions were prepared in dimethyl sulfoxide (DMSO, Sigma-Aldrich, St. Louis, MO, cat. D2650) at 800-fold the tested concentration and stored at -70 degrees C prior to their use. All drugs and investigational agents were tested over a range starting from a high concentration at or near the clinical Cmax and decreasing in half-log increments. If the clinical Cmax for an agent had not been determined, the highest concentration tested was 10 microM.
# Cell Culture. All cells were maintained in an incubator at 37 degrees C and 5% CO2 with 95% humidity. The PDC lines were cultured according to standard operating procedures established by the NCI PDMR (https://pdmr.cancer.gov/sops/default.htm). Briefly, all PDCs were thawed and cultured in Matrigel-coated flasks prepared with a working solution of 1X Ham's F-12 nutrient mix, without supplementation (Invitrogen, Waltham, MA, cat. 11765054), 100 U/mL penicillin-streptomycin (Invitrogen, cat. 15140122), and 2.5% Matrigel (Corning Inc., Corning, NY, cat. 354248) for the first three passages. All PDCs were cultured in complete DMEM/F-12 media containing advanced DMEM/F-12 (Invitrogen, cat. 12634028), 4.9% defined fetal bovine serum, heat inactivated (HyClone Laboratories Inc., Logan, UT, cat. SH30070.03HI), 389 ng/mL hydrocortisone (Sigma-Aldrich, cat. H4001), 9.7 ng/mL human EGF recombinant protein (Invitrogen, cat. PHG0313), 23.4 microg/mL adenine (Sigma-Aldrich, cat. A2786), 97.3 U/mL penicillin-streptomycin (Invitrogen, cat. 15140122), 1.9 mM L-glutamine (Invitrogen, cat. 25030081), and 9.7 microM Y-27632 dihydrochloride (Tocris Bioscience, Bristol, United Kingdom, cat. 1254). The PDCs were cultured in complete DMEM/F12 media without 9.7 microM Y-27632 dihydrochloride for at least two passages prior to the screen. The established cell line HOP-62 was cultured in RPMI 1640 medium, HEPES (Invitrogen, cat. 22400105) with 10% defined fetal bovine serum (HyClone Laboratories Inc., cat. SH30070.03) and 2 mM L-glutamine (Invitrogen, cat. 25030081). The pooled donor HUVEC were cultured in endothelial cell growth medium 2 (PromoCell, Heidelberg, Germany, cat. C-22011) and the hMSC were cultured in mesenchymal stem cell growth medium 2 (PromoCell, cat. C-28009). For all experiments, HUVEC and hMSC were used at passages </=5, while the malignant cell lines were used at passages </=15. […]
# [1] = curve of first compound, second compound 0.1 µM
# [2] = curve of first compound, second compound 0.316 µM
# [3] = curve of first compound, second compound 1 µM
# [4] = curve of first compound, second compound 3.16 µM
# [5] = curve of first compound, second compound 10 µM
# [6] = second compound 0.1 µM, first compound 0.0316 µM
# [7] = second compound 0.1 µM, first compound 0.1 µM
# [8] = second compound 0.1 µM, first compound 0.316 µM
# [9] = second compound 0.1 µM, first compound 1 µM
# [10] = second compound 0.1 µM, first compound 3.16 µM
# [11] = second compound 0.1 µM, first compound 10 µM
# [12] = second compound 0.316 µM, first compound 0.0316 µM
# [13] = second compound 0.316 µM, first compound 0.1 µM
# [14] = second compound 0.316 µM, first compound 0.316 µM
# [15] = second compound 0.316 µM, first compound 1 µM
# [16] = second compound 0.316 µM, first compound 3.16 µM
# [17] = second compound 0.316 µM, first compound 10 µM
# [18] = second compound 1 µM, first compound 0.0316 µM
# [19] = second compound 1 µM, first compound 0.1 µM
# [20] = second compound 1 µM, first compound 0.316 µM
# [21] = second compound 1 µM, first compound 1 µM
# [22] = second compound 1 µM, first compound 3.16 µM
# [23] = second compound 1 µM, first compound 10 µM
# [24] = second compound 3.16 µM, first compound 0.0316 µM
# [25] = second compound 3.16 µM, first compound 0.1 µM
# [26] = second compound 3.16 µM, first compound 0.316 µM
# [27] = second compound 3.16 µM, first compound 1 µM
# [28] = second compound 3.16 µM, first compound 3.16 µM
# [29] = second compound 3.16 µM, first compound 10 µM
# [30] = second compound 10 µM, first compound 0.0316 µM
# [31] = second compound 10 µM, first compound 0.1 µM
# [32] = second compound 10 µM, first compound 0.316 µM
# [33] = second compound 10 µM, first compound 1 µM
# [34] = second compound 10 µM, first compound 3.16 µM
# [35] = second compound 10 µM, first compound 10 µM
# [36] = compound alone, run of 07/19/2021
# [37] = compound alone, run of 07/26/2021
# 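Further: cells exposed to agents for seven days before viability read.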
# 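Wherever viability, T/C is given: 100% = DMSO vehicle control wells and lower values mean fewer viable cells.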
Structure (SMILES),IC50 [1] [µM],IC50 [2] [µM],IC50 [3] [µM],IC50 [4] [µM],"viability, T/C [6] [%]","viability, T/C [7] [%]","viability, T/C [8] [%]","viability, T/C [9] [%]","viability, T/C [10] [%]","viability, T/C [12] [%]","viability, T/C [13] [%]","viability, T/C [14] [%]","viability, T/C [15] [%]","viability, T/C [16] [%]","viability, T/C [18] [%]","viability, T/C [19] [%]","viability, T/C [20] [%]","viability, T/C [21] [%]","viability, T/C [22] [%]","viability, T/C [24] [%]",further results
COc1cc2nccc(Oc3ccc(NC(=O)C4(C(=O)Nc5ccc(F)cc5)CC4)cc3)c2cc1OC + C=CC(=O)N1CCN(c2nc(=O)n(-c3c(C)ccnc3C(C)C)c3nc(-c4c(O)cccc4F)c(F)cc23)C(C)C1,> 10,> 10,> 10,> 10,93.5,109,96,84.7,101,97.4,112,83.7,91.3,87.4,89.1,91.2,84.9,72.1,74.5,85.5,"IC50 [5]: > 10 µM; viability, T/C [11]: 104%; viability, T/C [17]: 76.3%; viability, T/C [23]: 75.1%; viability, T/C [25]: 79.8%; viability, T/C [26]: 102%; viability, T/C [27]: 76.7%; viability, T/C [28]: 72.4%; viability, T/C [29]: 114%; viability, T/C [30]: 82.3%; viability, T/C [31]: 74.9%; viability, T/C [32]: 69.1%; viability, T/C [33]: 81.8%; viability, T/C [34]: 88.5%; viability, T/C [35]: 76%"
CC1OCC2(CCN(c3cnc(Sc4ccnc(N)c4Cl)c(N)n3)CC2)C1N (configuration not stated),–,–,–,–,–,–,–,–,–,–,–,–,–,–,–,–,–,–,–,–,"viability, T/C (compound 0.0316 µM): 83.3% and 88.2% and 102%; IC50 [36]: > 10 µM; IC50 [37]: > 10 µM; IC50 (curve of compound): > 10 µM"
CC1COCCN1c1cc(-c2ccnn2C)c2ccnc(-c3ccn[nH]3)c2n1 (configuration not stated) + C=CC(=O)N1CCN(c2nc(OCC3CCCN3C)nc3c2CCN(c2cccc4cccc(C)c24)C3)CC1CC#N,> 3.16,> 3.16,> 3.16,0.19,95.3,94.6,74.8,59,54.1,96.6,91.5,69.4,59.3,55.6,90.5,77.8,70.3,64,56.9,61,"IC50 (curve of first compound, second compound 0.0316 µM): > 3.16 µM; viability, T/C (second compound 0.0316 µM, first compound 0.01 µM): 100%; viability, T/C (second compound 0.0316 µM, first compound 0.0316 µM): 92.7%; viability, T/C (second compound 0.0316 µM, first compound 0.1 µM): 82.4%; viability, T/C (second compound 0.0316 µM, first compound 0.316 µM): 71.3%; viability, T/C (second compound 0.0316 µM, first compound 1 µM): 67.5%; viability, T/C (second compound 0.0316 µM, first compound 3.16 µM): 56%; viability, T/C (second compound 0.1 µM, first compound 0.01 µM): 111%; viability, T/C (second compound 0.316 µM, first compound 0.01 µM): 106%; viability, T/C (second compound 1 µM, first compound 0.01 µM): 90%; viability, T/C (second compound 3.16 µM, first compound 0.01 µM): 76.2%; viability, T/C [25]: 56.8%; viability, T/C [26]: 42.9%; viability, T/C [27]: 45.6%; viability, T/C [28]: 48%"
O=C(c1cc(Cc2n[nH]c(=O)c3ccccc23)ccc1F)N1CCN(C(=O)C2CC2)CC1 + CC1OCC2(CCN(c3cnc(Sc4ccnc(N)c4Cl)c(N)n3)CC2)C1N,> 10,> 10,> 10,0.233,75.3,84.9,85.4,81.8,79.4,76.6,78.5,65.7,71.7,64.9,95.6,67.9,59.4,54.2,51,54.4,"IC50 [5]: 0.0707 µM; viability, T/C [11]: 62.5%; viability, T/C [17]: 65%; viability, T/C [23]: 52.9%; viability, T/C [25]: 52.8%; viability, T/C [26]: 45.1%; viability, T/C [27]: 50.6%; viability, T/C [28]: 44.4%; viability, T/C [29]: 43.3%; viability, T/C [30]: 55.9%; viability, T/C [31]: 47.1%; viability, T/C [32]: 41.4%; viability, T/C [33]: 42.7%; viability, T/C [34]: 37.5%; viability, T/C [35]: 36.6%"
C=CC(=O)N1CCN(c2nc(OCC3CCCN3C)nc3c2CCN(c2cccc4cccc(C)c24)C3)CC1CC#N (configuration not stated),–,–,–,–,–,–,–,–,–,–,–,–,–,–,–,–,–,–,–,–,"IC50 (compound alone, run of 07/12/2021): > 3.16 µM and 2.82 µM; IC50 [36]: > 3.16 µM and 2.57 µM and 2.49 µM; IC50 [37]: > 3.16 µM"
O=C(c1cc(Cc2n[nH]c(=O)c3ccccc23)ccc1F)N1CCN(C(=O)C2CC2)CC1 + C=CC(=O)N1CCN(c2nc(=O)n(-c3c(C)ccnc3C(C)C)c3nc(-c4c(O)cccc4F)c(F)cc23)C(C)C1,> 10,> 10,> 10,> 10,83.6,96,78.6,110,82.6,103,103,108,99,105,121,105,98.7,82.9,98.9,86.4,"IC50 [5]: > 10 µM; viability, T/C [11]: 71.8%; viability, T/C [17]: 87.9%; viability, T/C [23]: 99.4%; viability, T/C [25]: 98.1%; viability, T/C [26]: 82.5%; viability, T/C [27]: 103%; viability, T/C [28]: 85.2%; viability, T/C [29]: 89.8%; viability, T/C [30]: 84.1%; viability, T/C [31]: 83.5%; viability, T/C [32]: 83.2%; viability, T/C [33]: 73.5%; viability, T/C [34]: 78.2%; viability, T/C [35]: 77.8%"
